Measurements reported in publication PMC11671014 (PLOS Pathogens, 2024).
Like-named read-outs stand apart in the source and are kept apart here.

What was measured:
[1] = tested on: P. falciparum liver stage schizont (NF135); assay: Liver stage schizont assay in primary human hepatocytes (NF135); type: cell-based; settings: Plasmodium falciparum, Hepatocyte, 96 h, four days
Description: (§1) Activity against liver stage parasites was performed using a modification of published procedures. Briefly, cryopreserved human primary hepatocytes (NF175: H1500.H15B+ Lot No. HC0-6, TebuBio or NF135: F00995-P Lot No. IRZ, BioIVT) were thawed and seeded at 18,000 cells per well in collagen-coated 384-well microtiter plates in medium containing 10% heat inactivated fetal bovine serum (hiFBS). Cells were cultured at 37°C in 5% CO2. For NF175, medium was replaced by fresh medium containing 10% hiFBS, 5 h post plating. For NF135, medium was replaced by medium containing 0.2% BSA, 24 h post plating. 48 h post plating, salivary glands from Plasmodium-NF175 or NF135-infected Anopheles stephensi mosquitoes were dissected, added to the hepatocytes (10,000 per well/ NF175; or 12,500 per well/ NF135) and allowed to infect for 3 hours. Sporozoites were then aspirated, and compounds diluted in medium containing 10% hiFBS or 0.2% BSA, were added to the hepatocytes. Medium containing 10% hiFBS or 0.2% BSA and compounds was refreshed daily for four days. Hepatocytes were fixed with ice-cold methanol and samples were blocked with 10% hiFBS in PBS. Schizonts were stained with rabbit anti-HSP70 in 10% hiFBS for 1–2 h followed by incubation with a mixture of secondary goat anti-rabbit AlexaFluor 594 antibody and 4′,6-diamidine-2′-phenylindole dihydrochloride (DAPI) in 10% hiFBS for 30 min. Samples were washed with PBS containing 0.05% Tween 20 between different steps. Cells were imaged on a PicoExpress high content imager, and images were analysed automatically using CellReporterXpress software. Data were analysed by logistic regression using a four-parameter (Hill equation) model and a least-squares method to find the best fit.

Primary hepatocytes = assay: Toxicity to primary hepatocyte host cells in the liver stage assay; type: cell-based, human; settings: for IC50: Homo sapiens, Hepatocyte
Description: as §1

[2] = tested on: P. falciparum liver stage schizont (NF175); set-up: method as in ref [1] Xie et al., Science 2022; settings: ref [1] Xie et al., Science 2022; cited from earlier work
[3] = tested on: stage V NF54 strain male and female gametocytes; set-up: method as in ref [1] Xie et al., Science 2022; settings: 48 h, ref [1] Xie et al., Science 2022, cited from earlier work
[4] = molecular target: Atg7 (autophagy-related protein-7) (Homo sapiens, UniProt O95352); assay: ATG7 E1-E2 transthiolation HTRF assay (GABARAP); type: biochemical; settings: read-out: ATG7 IC50 HTRF RH-GABARAP
Excerpt: An Homogeneous Time-Resolved Fluorescence (HTRF) enzyme assay was employed to evaluate compound activity against ATG7 as previously described. In this assay, a Flag-tagged ATG8 homolog (GABA type A receptor-associated protein; GABARAP) is activated by ATG7 and then transthiolated to a GST-tagged E2 (ATG3). The product of the enzyme reaction, Flag-GABARAP-ATG3-GST, is quantified by measuring FRET between Europium-Cryptate labelled monoclonal anti-Flag M2 (FLAG M2-Eu cryptate; Revvity, Cat# 61FG2KLB) and […] (Anti-GST IgG conjugated to SureLight-Allophycocyanin) (Revvity, Cat# AD0059G)). The activation and transthiolation of ubiquitin by UAE, activation and transthiolation of NEDD8 by NAE and activation and transthiolation of SUMO by SAE were all assayed in a similar fashion with appropriately tagged ubiquitin-like proteins and E2 conjugating enzymes as described.

[5] = tested on: P. falciparum Brazilian field isolates; assay: Ex vivo drug susceptibility of Brazilian field isolates (P. falciparum); type: cell-based; settings: Plasmodium falciparum
Description: (§2) Compounds were assayed on ten P. vivax isolates and seven P. falciparum Brazilian isolates collected from mono-infected patients, who had signed a written informed consent form to participate in the study, using previously described methods. The initial parasitemia ranged from 2,100–8,000 parasites/μL for P. vivax and 3,500–9,000 parasites/μL for P. falciparum isolates. Artesunate and chloroquine were assayed in parallel as standard compounds. The analyses included only the isolates that were incubated for ≥ 40 h with the compounds.

[6] = tested on: P. vivax Brazilian field isolates; assay: Ex vivo drug susceptibility of Brazilian field isolates (P. vivax); type: cell-based; settings: Plasmodium vivax
Description: as §2

[7] = tested on: P. falciparum liver stage schizont (NF175); assay: Liver stage schizont assay in primary human hepatocytes (NF175); type: cell-based; settings: Plasmodium falciparum, Hepatocyte, 96 h, four days
Description: as §1, with “Hepatocytes were fixed with ice-cold methanol and samples were blocked with 10% hiFBS in PBS. Schizonts were stained with rabbit anti-HSP70 in 10% hiFBS for 1–2 h followed by incubation with a mixture of secondary goat anti-rabbit AlexaFluor 594 antibody and 4′,6-diamidine-2′-phenylindole dihydrochloride (DAPI) in 10% hiFBS for 30 min. Samples were washed with PBS containing 0.05% Tween 20 between different steps.” left out

[8] = host cells of the NF135 experiment
[9] = host cells of the NF175 experiment

Sequence of Atg7 (autophagy-related protein-7) (O95352 whole entry): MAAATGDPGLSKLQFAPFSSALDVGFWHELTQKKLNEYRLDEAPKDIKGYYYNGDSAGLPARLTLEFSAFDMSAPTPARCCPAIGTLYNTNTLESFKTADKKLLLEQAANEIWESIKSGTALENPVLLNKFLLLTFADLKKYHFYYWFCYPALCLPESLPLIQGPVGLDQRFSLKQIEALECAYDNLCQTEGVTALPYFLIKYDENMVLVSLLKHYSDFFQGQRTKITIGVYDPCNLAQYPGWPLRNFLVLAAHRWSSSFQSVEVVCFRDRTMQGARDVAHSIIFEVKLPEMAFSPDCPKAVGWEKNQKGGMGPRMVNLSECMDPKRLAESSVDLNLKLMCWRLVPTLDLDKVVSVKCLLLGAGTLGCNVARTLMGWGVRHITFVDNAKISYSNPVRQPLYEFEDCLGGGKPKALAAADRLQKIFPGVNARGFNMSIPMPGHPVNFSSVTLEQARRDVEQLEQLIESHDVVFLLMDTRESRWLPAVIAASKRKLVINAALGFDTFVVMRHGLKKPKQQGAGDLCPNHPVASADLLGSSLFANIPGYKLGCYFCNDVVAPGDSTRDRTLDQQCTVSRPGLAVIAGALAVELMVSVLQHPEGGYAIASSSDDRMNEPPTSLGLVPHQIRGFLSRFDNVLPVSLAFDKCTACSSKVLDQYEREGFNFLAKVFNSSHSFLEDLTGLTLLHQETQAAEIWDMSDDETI

Compound | IC50 [1] | IC50 (Primary hepatocytes; [8]) | IC50 (Primary hepatocytes; [9]) | IC50 [2] | IC50 ([3]; female, read-out: Dual gamete formation assay (female) IC50(48h)) | IC50 ([3]; male, read-out: Dual gamete formation assay (male) IC50(48h)) | IC50 [4] | EC50 ([5]; range over n = 7 isolates, read-out: EC50 range, P. falciparum Brazilian field isolates) | EC50 ([5]; read-out: Median EC50, P. falciparum Brazilian field isolates) | EC50 ([6]; range over n = 10 isolates, read-out: EC50 range, P. vivax Brazilian field isolates) | EC50 ([6]; read-out: Median EC50, P. vivax Brazilian field isolates) | IC50 [7] | toxicity against the primary hepatocyte host cells (in words) (Primary hepatocytes)
Nc1ncnc2c1c(OC(F)F)nn2[C@@H]1O[C@H](COS(N)(=O)=O)[C@@H](O)[C@H]1O [ML901] | 2.9 ± 0.9 nM | > 100 nM | > 10000 nM | 13 ± 5 nM | 4700 nM | 130 ± 10 nM |  |  |  |  |  |  | 
CC(C)c1nn([C@@H]2O[C@H](COS(N)(=O)=O)[C@@H](O)[C@H]2O)c2ncnc(N)c12 [ML471, ((2R,3S,4R,5R)-5-(4-amino-3-isopropyl-1H-pyrazolo[3,4-d]pyrimidin-1-yl)-3,4-dihydroxytetrahydrofuran-2-yl)methyl sulfamate] | 5.5 nM | > 100 nM | > 10000 nM |  |  |  | 22 ± 9 nM | 2.5 to 4.9 nM | 4.2 nM | 1.2 to 62 nM | 8 nM | 2.8 nM | no toxicity
